For experiment [1], the target named is T1, citrate synthase (CS) (Sus scrofa, UniProt P00889).
T1 construct: commercial native enzyme from porcine heart
T1 sequence (P00889 28-464): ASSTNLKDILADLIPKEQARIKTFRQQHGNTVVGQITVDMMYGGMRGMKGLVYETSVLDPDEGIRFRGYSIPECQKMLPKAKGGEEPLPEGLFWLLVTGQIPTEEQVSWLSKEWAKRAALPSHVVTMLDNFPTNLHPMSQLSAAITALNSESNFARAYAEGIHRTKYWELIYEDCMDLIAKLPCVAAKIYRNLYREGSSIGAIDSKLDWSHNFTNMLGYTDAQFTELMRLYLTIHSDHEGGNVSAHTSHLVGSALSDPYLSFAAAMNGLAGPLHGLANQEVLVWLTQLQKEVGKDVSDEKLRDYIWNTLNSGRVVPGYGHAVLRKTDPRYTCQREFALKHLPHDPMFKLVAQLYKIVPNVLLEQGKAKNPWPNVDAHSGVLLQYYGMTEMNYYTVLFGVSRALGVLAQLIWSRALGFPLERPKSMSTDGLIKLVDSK
The experiment can be described thus: Ellman's reagent at […] nm, inhibition of malyl-CoA thioesterase. Particulars: read-out: % inhibition at highest concentration (100 μM). It is filed as biochemical. For orientation: Ellman's reagent forms a yellow product with free thiols.

Experiment [2] addresses T2, methylmalonyl-CoA mutase (MCM) (Homo sapiens, UniProt P22033).
T2 construct: gene MMUT
T2 sequence (P22033 34-750): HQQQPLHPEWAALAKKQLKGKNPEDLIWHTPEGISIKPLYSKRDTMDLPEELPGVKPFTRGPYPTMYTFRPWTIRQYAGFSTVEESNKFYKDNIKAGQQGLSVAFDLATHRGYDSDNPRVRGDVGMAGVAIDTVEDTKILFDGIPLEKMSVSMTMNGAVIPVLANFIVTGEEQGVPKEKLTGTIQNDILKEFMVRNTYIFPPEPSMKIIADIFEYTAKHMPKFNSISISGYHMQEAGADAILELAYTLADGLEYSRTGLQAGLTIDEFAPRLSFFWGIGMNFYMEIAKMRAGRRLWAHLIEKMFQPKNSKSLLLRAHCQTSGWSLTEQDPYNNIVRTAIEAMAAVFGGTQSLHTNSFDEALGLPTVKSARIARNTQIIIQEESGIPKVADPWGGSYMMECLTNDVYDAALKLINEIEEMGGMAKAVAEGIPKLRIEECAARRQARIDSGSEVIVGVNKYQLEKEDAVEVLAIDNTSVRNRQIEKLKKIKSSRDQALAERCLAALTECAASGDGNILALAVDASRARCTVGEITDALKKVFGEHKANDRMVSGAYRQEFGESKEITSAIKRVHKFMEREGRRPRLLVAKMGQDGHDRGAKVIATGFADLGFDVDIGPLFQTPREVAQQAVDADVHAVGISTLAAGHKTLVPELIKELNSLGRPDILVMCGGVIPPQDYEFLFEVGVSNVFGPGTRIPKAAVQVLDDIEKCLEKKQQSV
The experiment can be described thus: absorbance spectrum of loaded enzyme. In kind it is binding. Particulars: 12.5 μM MCM homodimer, 5 μM adenosylcobalamin, pH 7.5, 30 °C.

Experiment [3] addresses T2, methylmalonyl-CoA mutase (MCM). The experiment can be described thus: succinyl-CoA formation by LC-HRMS/MS. In kind it is biochemical. Particulars: 10 min preincubation, 0.24 μM adenosylcobalamin, 65 μM methylmalonyl-CoA, pH 7.5, 30 °C; coenzyme inactivation to cob(II)alamin; itaconyl-CoA 27% pure, concentrations corrected.
The target in experiment [4] is T3, CLYBL (Homo sapiens, UniProt Q8N0X4, I241V).
T3 construct: full-length ORF (340 aa precursor), natural variant Ile241Val, C-terminal Myc-DKK (FLAG) tag, expressed in HEK293FT, anti-FLAG purified
T3 sequence (Q8N0X4 23-340 I241V): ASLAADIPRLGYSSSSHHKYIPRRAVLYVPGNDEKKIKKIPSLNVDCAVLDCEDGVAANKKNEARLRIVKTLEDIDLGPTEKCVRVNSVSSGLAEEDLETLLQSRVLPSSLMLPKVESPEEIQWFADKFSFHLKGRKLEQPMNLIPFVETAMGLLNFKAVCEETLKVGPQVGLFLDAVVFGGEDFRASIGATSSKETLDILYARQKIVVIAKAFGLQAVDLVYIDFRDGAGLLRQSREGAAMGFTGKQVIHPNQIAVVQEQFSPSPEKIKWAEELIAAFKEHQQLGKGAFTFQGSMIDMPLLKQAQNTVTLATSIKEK
The experiment can be described thus: Ellman's reagent at […] nm (thioesterase). It is filed as biochemical. Particulars: pH 7.5, 37 °C, 2 mM MgCl2.

Experiment [5] deals with T2, methylmalonyl-CoA mutase (MCM). The experiment can be described thus: succinyl-CoA formation by LC-HRMS/MS. In kind it is biochemical. Particulars: read-out: % residual activity at 50 μM.
In experiment [6] the target is T4, SUCL (GDP-forming), SUCLG1:SUCLG2 complex (Homo sapiens, UniProt P53597+Q96I99).
T4 construct: SUCLG1 aa 28-333 with N-terminal His6, SUCLG2 aa 38-420 with C-terminal His6, co-expressed in E. coli, tags kept
The experiment can be described thus: PK/LDH-coupled NADH consumption. In kind it is biochemical. Particulars: 0.6 mM GTP, 0.1 mM CoA, 7 mM MgCl2, pH 7.5, 30 °C. The source says: PK/LDH-coupled NADH consumption on SUCL (GDP-forming), SUCLG1:SUCLG2 complex

Experiment [7] has as its target T5, SUCL (ADP-forming), SUCLG1:SUCLA2 complex (Homo sapiens, UniProt P53597+Q9P2R7).
T5 construct: SUCLG1 aa 28-333 with N-terminal His6, SUCLA2 aa 53-463 with C-terminal His6, co-expressed in E. coli, tags kept
The experiment can be described thus: PK/LDH-coupled NADH consumption. It is filed as biochemical. Particulars: 0.6 mM ATP, 0.1 mM CoA, 7 mM MgCl2, pH 7.5, 30 °C. The source says: PK/LDH-coupled NADH consumption on SUCL (ADP-forming), SUCLG1:SUCLA2 complex

T4 sequence (P53597 28-333): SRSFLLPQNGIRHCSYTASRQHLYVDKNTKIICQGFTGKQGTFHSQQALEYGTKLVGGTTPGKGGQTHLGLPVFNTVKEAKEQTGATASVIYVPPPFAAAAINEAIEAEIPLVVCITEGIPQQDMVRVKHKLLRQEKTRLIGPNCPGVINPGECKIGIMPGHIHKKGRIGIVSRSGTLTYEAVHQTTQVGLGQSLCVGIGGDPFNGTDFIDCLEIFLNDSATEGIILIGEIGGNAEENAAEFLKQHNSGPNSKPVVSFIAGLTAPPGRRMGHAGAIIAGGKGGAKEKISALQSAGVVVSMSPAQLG
T4 sequence (Q96I99 38-420): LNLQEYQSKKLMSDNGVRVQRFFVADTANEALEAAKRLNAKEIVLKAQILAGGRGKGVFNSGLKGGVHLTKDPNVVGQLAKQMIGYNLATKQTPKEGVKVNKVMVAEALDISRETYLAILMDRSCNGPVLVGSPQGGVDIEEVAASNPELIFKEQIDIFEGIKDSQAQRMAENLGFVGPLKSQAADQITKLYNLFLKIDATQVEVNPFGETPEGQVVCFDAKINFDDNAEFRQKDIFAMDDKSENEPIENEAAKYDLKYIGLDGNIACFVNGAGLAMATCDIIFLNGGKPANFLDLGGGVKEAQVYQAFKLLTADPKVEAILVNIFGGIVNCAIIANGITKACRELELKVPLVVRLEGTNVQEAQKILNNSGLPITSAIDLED
T5 sequence (P53597 28-333): as the sequence (P53597 28-333) above
T5 sequence (Q9P2R7 53-463): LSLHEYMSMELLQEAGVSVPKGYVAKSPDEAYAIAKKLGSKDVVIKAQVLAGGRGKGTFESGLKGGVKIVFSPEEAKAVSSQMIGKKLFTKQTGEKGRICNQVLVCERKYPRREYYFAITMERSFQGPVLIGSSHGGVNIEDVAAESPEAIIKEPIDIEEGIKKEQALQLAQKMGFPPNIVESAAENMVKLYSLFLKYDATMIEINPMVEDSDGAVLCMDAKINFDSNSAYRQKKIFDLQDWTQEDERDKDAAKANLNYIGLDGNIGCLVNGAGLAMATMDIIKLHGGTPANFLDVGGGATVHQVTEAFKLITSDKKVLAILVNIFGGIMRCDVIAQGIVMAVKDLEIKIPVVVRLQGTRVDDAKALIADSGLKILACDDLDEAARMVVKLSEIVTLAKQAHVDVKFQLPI

`CC(=O)SCCNC(=O)CCNC(=O)[C@H](O)C(C)(C)COP(=O)(O)OP(=O)(O)OC[C@H]1O[C@@H](n2cnc3c(N)ncnc32)[C@H](O)[C@@H]1OP(=O)(O)O` [ACoA, acetyl-CoA]: the inhibition at 100 µM in experiment [1] is around 30%. As to `C/C1=C2/[N-][C@H]([C@H](CC(N)=O)[C@@]2(C)CCC(=O)NC[C@@H](C)OP(=O)([O-])O[C@H]2C(O)[C@@H](n3cnc4cc(C)c(C)cc43)O[C@@H]2CO)[C@]2(C)N=C(/C(C)=C3N=C(/C=C4N=C1[C@@H](CCC(N)=O)C\4(C)C)[C@@H](CCC(N)=O)[C@]\3(C)CC(N)=O)[C@@H](CCC(N)=O)[C@]2(C)CC(N)=O.[CH2-][C@H]1O[C@@H](n2cnc3c(N)ncnc32)[C@H](O)[C@@H]1O.[Co+3]` (stereo partly shown) [AdoCbl, adenosylcobalamin], the “absorbance spectrum of loaded enzyme” value in experiment [2] was “conversion of the MCM-bound adenosylcobalamin into cob(II)alamin”.

`C=C(CC(=O)SCCNC(=O)CCNC(=O)[C@H](O)C(C)(C)COP(=O)(O)OP(=O)(O)OC[C@H]1O[C@@H](n2cnc3c(N)ncnc32)[C@H](O)[C@@H]1OP(=O)(O)O)C(=O)O` [itaconyl-CoA]: the relative activity entry in experiment [3] is recorded as “Both acyl-CoAs induced a dose-dependent inhibition of MCM (Fig. 5a)”. Regarding `CC(C)(COP(=O)(O)OP(=O)(O)OC[C@H]1O[C@@H](n2cnc3c(N)ncnc32)[C@H](O)[C@@H]1OP(=O)(O)O)[C@@H](O)C(=O)NCCC(=O)NCCSC(=O)C[C@H](O)C(=O)O` [malyl-CoA], the KM result in experiment [4] is “CLYBL actively hydrolyzed malyl-CoA into malate and free CoASH”. The remaining activity at 50 µM in experiment [5] was below 10%. As usually defined, the Km is the substrate concentration at which the rate is half of its maximum. As to `O=C(O)CCC(=O)O` [succinate], the Km in experiment [6] stood at 0.25 ± 0.03 mM; in experiment [7] it was 6.3 ± 1.9 mM.

For the origin of these results see publication doi:10.1101/2024.09.25.614871v2, “CLYBL averts methylmalonyl-CoA mutase inhibition and loss of vitamin B12 by repairing malyl-CoA” (biorxiv, 2024).
